Source: US10441659B2, “Lipids for therapeutic agent delivery formulations” (Nitto Denko Corporation, priority 2012, dated 2019)

Legend:
gp46 mRNA in pHSC [1] = assay: In vitro (pHSC) gp46 knockdown by siRNA liposome formulations, qRT-PCR; type: cell-based; details: @ 20 nM
Description: In Vitro (pHSC, Gp46 KD @ 20 nM) Efficacy
PHSCs in 96-well plate were incubated with formulation that composed of either ionizable lipid formulation C104, ionizable lipid formulation Tu104, or combination formulations with different ratio of ionizable lipids (C104:Tu104). After 30 minutes, medium was replaced with fresh growth medium. Forty eight hours later, cells were lysed and gp46 and GAPDH mRNA levels measured by quantitative RT-PCR (TaqMan®) assay, and gp46 levels were normalized to GAPDH levels. Normalized gp46 levels were expressed as percent of mock control cells. Error bars indicate standard deviations (n=3). Results are depicted in FIG. 1.
Transfection method is same for LX-2 and pHSCs. The liposome formulations or lipoplex formulations of the description were mixed with growth medium at desired concentrations. 100 μl of the mixture was added to the cells in 96-well plate and cells were incubated for 30 min at 37° C. in the incubator with 5% CO2. After 30 min, medium was replaced with fresh growth medium. After 48 h of transfection, cells were processed using Cell-to-Ct lysis reagents (Applied Biosystems) according to the manufacturer's instructions.
HSP47 and GAPDH TaqMan®® assays and One-Step RT-PCR master mix were purchased from Applied Biosystems. Each PCR reaction contained the following composition: One-step RT-PCR mix 5 μl, TaqMan® RT enzyme mix 0.25 μl, TaqMan® gene expression assay probe (HSP47) 0.25 μl, TaqMan® gene expression assay probe (GAPDH) 0.5 μl, RNase free water 3.25 μl, Cell lysate 0.75 μl, Total volume of 10 μl. GAPDH was used as endogenous control for the relative quantification of HSP47 mRNA levels. Quantitative RT-PCR was performed in ViiA 7 realtime PCR system (Applied Biosciences). All values were normalized to the average HSP47 expression of the mock transfected cells and expressed as percentage of HSP47 expression compared to mock.

gp46 mRNA in pHSC [2] = assay: as above; type: cell-based
gp46 mRNA = assay: In vivo (DMNQ) efficacy, short-term liver damage model, liver gp46 mRNA; parameters: species or system male Sprague-Dawley rats; details: single IV dose, liver 24 h after
Description: In vivo activity of target formulation was evaluated in the short-term liver damage model (referred to as the Quick Model or DMNQ). In this model, the short-term liver damage induced by treatment with a hepatotoxic agent such as dimethylnitrosamine (DMN) is accompanied by the elevation of gp46 mRNA levels. To induce these changes, male Sprague-Dawley rats were injected intraperitoneally with DMN on six consecutive days. At the end of the DMN treatment period, the animals were randomized to groups based upon individual animal body weight. Formulations was administered as a single IV dose, one hour after the last injection of DMN. Twenty four hours after, liver lobes were excised and both gp46 and MRPL19 mRNA levels were determined by quantitative RT-PCR (TaqMan) assay. mRNA levels for gp46 were normalized to MRPL19 levels. Results are depicted in FIG. 4. Several combinations of ionizable:cationic lipids achieved 50% reduction in gene expression for a single, 0.5 mg per kg of animal body weight, dose of encapsulated siRNA.

HepG2 cells = assay: HepG2 cytotoxicity assay (CellTiter-Glo); type: cell-based, human; details: HepG2 @ 200 nM, 48 h post formulation addition, n=3
Description: In Vitro Toxicology Data, In Vitro Cytotoxicity (HepG2 @ 200 nM)
HepG2 cells, an adherent cell line derived from human hepatocellular carcinoma, was cultured in MEM/EBSS (Hyclone, Logan, Utah, Cat# SH30024.01) supplemented with 10% FBS (Hyclone, Logan, Utah Cat# SH30910). HepG2 cells were seeded in 96-well Optilux black plates (BD Falcon, Cat # BD353220) at 5000 cells/well overnight. Formulations were added to each well to final indicated siRNA concentration (n=3). At 48 h post formulation addition, cell viability was determined using CellTiter-Glo Luminescent Cell Viability Assay Kit (Promega, Cat #G7572) following manufacture's instruction. Chemiluminescent signal were measured on Clarity Luminescence Microplate Reader (502-Biotek, Winooski, Vt.). Viability was calculated based on % of chemiluminescent signal in formulation treated well normalized against mock treated wells.

SMILES: CCCCCCCC/C=C\CCCCCCCC(=O)OCCN(CCOC(=O)CCCCCCC/C=C\CCCCCCCC)C(=O)CCCCN(C)C [C104-DO, (Z)-((5-(dimethylamino)pentanoyl)azanediyl)bis(ethane-2,1-diyl) dioleate]
- in vitro (pHSC) % KD (gp46 mRNA in pHSC [1]): 32% @ 20 nM

SMILES: CCCCCCCCCCCCCC(=O)OCCN(CCOC(=O)CCCCCCCCCCCCC)C(=O)OCCCN(C)C [CB104, (((3-(dimethylamino)propoxy)carbonyl)azanediyl)bis(ethane-2,1-diyl) ditetradecanoate]
- in vitro (pHSC) % KD (gp46 mRNA in pHSC [1]): 42% @ 20 nM

SMILES: CCCCCCCCCCCCCC(=O)OCCN(CCOC(=O)CCCCCCCCCCCCC)C(=O)COC(=O)CCCN(C)C [HEDC- M1, ((2-((4-(dimethylamino)butanoyl)oxy)acetyl)azanediyl)bis(ethane-2,1-diyl) ditetradecanoate]
- in vitro (pHSC) % KD (gp46 mRNA in pHSC [1]): 53% @ 20 nM

SMILES: CCCCCCCC/C=C\CCCCCCCC(=O)OCCN(CCOC(=O)CCCCCCC/C=C\CCCCCCCC)C(=O)CN(C)C [INT-4, (Z)-((2-(dimethylamino)acetyl)azanediyl)bis(ethane-2,1-diyl) dioleate]
- in vitro (pHSC) % KD (gp46 mRNA in pHSC [2]; @ 50 nM): 70% @ 50 nM

SMILES: CCCCCCCCCCCCCC(=O)OCCN(CCOC(=O)CCCCCCCCCCCCC)C(=O)CCCCN(C)C [Lipid C104, ((5-(dimethylamino)pentanoyl)azanediyl)bis(ethane-2,1-diyl) ditetradecanoate]
- in vivo (rat DMNQ) % KD (gp46 mRNA; @ 0.5 mpk): 75% @ 0.5 mpk
- in vitro (pHSC) % KD (gp46 mRNA in pHSC [1]): 53% @ 20 nM

SMILES: CCCCCCCCCCCCCC(=O)OCCN(CCOC(=O)CCCCCCCCCCCCC)C(=O)COCCN(C)C [Lipid O104, ((2-(2-(dimethylamino)ethoxy)acetyl)azanediyl)bis(ethane-2,1-diyl) ditetradecanoate]
- in vitro (pHSC) % KD (gp46 mRNA in pHSC [1]): 55% @ 20 nM

SMILES: CCCCCCCCCCCCCC(=O)OCCN(CCOC(=O)CCCCCCCCCCCCC)C(=O)CSCCN(C)C [Lipid S104, ((2-((2-(dimethylamino)ethyl)thio)acetyl)azanediyl)bis(ethane-2,1-diyl) ditetradecanoate]
- in vivo (rat DMNQ) % KD (gp46 mRNA; @ 0.5 mpk): 52% @ 0.5 mpk
- % viability (HepG2 cells): 52%
- in vitro (pHSC) % KD (gp46 mRNA in pHSC [2]; @ 50 nM): 68% @ 50 nM

SMILES: CCCCCCCCCCCCCC(=O)OCCN(CCOC(=O)CCCCCCCCCCCCC)C(=O)c1ccc(CN(C)C)s1 [Lipid T104, ((5-((dimethylamino)methyl)thiophene-2-carbonyl)azanediyl)bis(ethane-2,1-diyl) ditetradecanoate]
- in vitro (pHSC) % KD (gp46 mRNA in pHSC [1]): 58% @ 20 nM

SMILES: CCCC/C=C/CCCCCCCC(=O)OCCN(CCOC(=O)CCCCCCC/C=C/CCCC)C(=O)CSCCN(C)C [S104-DMO, (9Z,9′Z)-((2-((2-(dimethylamino)ethyl)thio)acetyl)azanediyl)bis(ethane-2,1-diyl) bis(tetradec-9-enoate)]
- in vitro (pHSC) % KD (gp46 mRNA in pHSC [2]; @ 10 nM): 40% @ 10 nM

SMILES: CCCCCCCC/C=C\CCCCCCCC(=O)OCCN(CCOC(=O)CCCCCCC/C=C\CCCCCCCC)C(=O)CSCCN(C)C [S104-DO, (Z)-((2-((2-(dimethylamino)ethyl)thio)acetyl)azanediyl)bis(ethane-2,1-diyl) dioleate]
- in vivo (rat DMNQ) % KD (gp46 mRNA; @ 0.5 mpk): 65% @ 0.5 mpk
- in vitro (pHSC) % KD (gp46 mRNA in pHSC [1]): 78% @ 20 nM

SMILES: CCCCCCCCCCCCCC(=O)OCCN(CCOC(=O)CCCCCCCCCCCCC)C(=O)CS(=O)(=O)CCN(C)C [SO2-S104, ((2-((2-(dimethylamino)ethyl)sulfonyl)acetyl)azanediyl)bis(ethane-2,1-diyl) ditetradecanoate]
- in vivo (rat DMNQ) % KD (gp46 mRNA; @ 0.5 mpk): 18% @ 0.5 mpk
- in vitro (pHSC) % KD (gp46 mRNA in pHSC [1]): 75% @ 20 nM

SMILES: CCCCCCCCCCCCCC(=O)OCCN(CCOC(=O)CCCCCCCCCCCCC)C(=O)SCCN(C)C [TU104, ((((2-(dimethylamino)ethyl)thio)carbonyl)azanediyl)bis(ethane-2,1-diyl) ditetradecanoate]
- in vitro (pHSC) % KD (gp46 mRNA in pHSC [1]): 76% @ 20 nM

SMILES: CCCCCCCC/C=C\CCCCCCCC(=O)OCCN(CCOC(=O)CCCCCCC/C=C\CCCCCCCC)C(=O)SCCN(C)C [TU104-DO, (Z)-((((2-(dimethylamino)ethyl)thio)carbonyl)azanediyl)bis(ethane-2,1-diyl) dioleate]
- in vivo (rat DMNQ) % KD (gp46 mRNA; @ 0.25 mpk): 40% @ 0.25 mpk
- in vitro (pHSC) % KD (gp46 mRNA in pHSC [1]): 81% @ 20 nM

SMILES: CCCCCCCCCCCCCC(=O)OCCN(CCOC(=O)CCCCCCCCCCCCC)C(=O)CN(C)C [i-DC, ((2-(dimethylamino)acetyl)azanediyl)bis(ethane-2,1-diyl) ditetradecanoate]
- in vitro (pHSC) % KD (gp46 mRNA in pHSC [2]; @ 200 nM): 89% @ 200 nM

SMILES: CCCCCCCC/C=C\CCCCCCCC(=O)OCCN(CCOC(=O)CCCCCCC/C=C\CCCCCCCC)C(=O)CCN(C)C [i-Et- DODC, (Z)-((3-(dimethylamino)propanoyl)azanediyl)bis(ethane-2,1-diyl) dioleate]
- in vitro (pHSC) % KD (gp46 mRNA in pHSC [2]; @ 50 nM): 43% @ 50 nM

SMILES: CCCCCCCCCCCCCC(=O)OCCN(CCOC(=O)CCCCCCCCCCCCC)C(=O)CCN(C)C [i-Et-DC, ((3-(dimethylamino)propanoyl)azanediyl)bis(ethane-2,1-diyl) ditetradecanoate]
- in vitro (pHSC) % KD (gp46 mRNA in pHSC [2]; @ 50 nM): 65% @ 50 nM

SMILES: CCCCCCCC/C=C\CCCCCCCC(=O)OCCCN(CCCOC(=O)CCCCCCC/C=C\CCCCCCCC)C(=O)CN(C)C [i-Pr- DODC, (Z)-((2-(dimethylamino)acetyl)azanediyl)bis(propane-3,1-diyl) dioleate]
- in vitro (pHSC) % KD (gp46 mRNA in pHSC [2]; @ 50 nM): 60% @ 50 nM

SMILES: CCCCCCCCCCCCCC(=O)OCCCN(CCCOC(=O)CCCCCCCCCCCCC)C(=O)CN(C)C [i-Pr-DC, ((2-(dimethylamino)acetyl)azanediyl)bis(propane-3,1-diyl) ditetradecanoate]
- in vitro (pHSC) % KD (gp46 mRNA in pHSC [2]; @ 50 nM): 53% @ 50 nM

SMILES: CCCCCCCCCCCCCC(=O)OCCN(CCOC(=O)CCCCCCCCCCCCC)C(=O)CCCN(C)C [i-Prop- DC, ((4-(dimethylamino)butanoyl)azanediyl)bis(ethane-2,1-diyl) ditetradecanoate]
- in vitro (pHSC) % KD (gp46 mRNA in pHSC [2]; @ 50 nM): 55% @ 50 nM
- in vitro (pHSC) % KD (gp46 mRNA in pHSC [1]): 54% @ 20 nM

SMILES: CCCCCCCC/C=C\CCCCCCCC(=O)OCCN(CCOC(=O)CCCCCCC/C=C\CCCCCCCC)C(=O)CCCN(C)C [i-Prop- DODC, (Z)-((4-(dimethylamino)butanoyl)azanediyl)bis(ethane-2,1-diyl) dioleate]
- in vitro (pHSC) % KD (gp46 mRNA in pHSC [2]; @ 50 nM): 55% @ 50 nM
- in vitro (pHSC) % KD (gp46 mRNA in pHSC [1]): 27% @ 20 nM
